Test results from the supplement of paper PMC10307832.

Columns and labels:
Experiment in all cases: relative viability (nuclei count vs DMSO), 5 days (fraction); higher = more cells survive
ABC-1 = test system: ABC-1
Outline: (§1)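 Each reported value is a median over duplicate plates. It expresses relative viability: treated-well nuclei count divided by vehicle-well nuclei count. Lung cancer cell lines in 1536-well plates were dosed by pin tool a day after seeding, alone with one drug or with a fixed anchor-drug dose plus five library-drug doses (not always all listed) in √10 steps, and nuclei were counted after 5 days.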

CAL-12T = test system: CAL-12T
Outline: as §1

COR-L23 = test system: COR-L23
Outline: as §1

EKVX = test system: EKVX
Outline: as §1

H3255 = test system: H3255
Outline: as §1

HCC-15 = test system: HCC-15
Outline: as §1

HCC-827 = test system: HCC-827
Outline: as §1

LK-2 = test system: LK-2
Outline: as §1

NCI-H1355 = test system: NCI-H1355
Outline: as §1

NCI-H1437 = test system: NCI-H1437
Outline: as §1

NCI-H1563 = test system: NCI-H1563
Outline: as §1

NCI-H1650 = test system: NCI-H1650
Outline: as §1

NCI-H1734 = test system: NCI-H1734
Outline: as §1

NCI-H2228 = test system: NCI-H2228
Outline: as §1

NCI-H2342 = test system: NCI-H2342
Outline: as §1

NCI-H2405 = test system: NCI-H2405
Outline: as §1

NCI-H322M = test system: NCI-H322M
Outline: as §1

NCI-H520 = test system: NCI-H520
Outline: as §1

NCI-H661 = test system: NCI-H661
Outline: as §1

PC-14 = test system: PC-14
Outline: as §1

PC-3 [JPC-3] = test system: PC-3 [JPC-3]
Outline: as §1

RERF-LC-KJ = test system: RERF-LC-KJ
Outline: as §1

SW 1573 = test system: SW 1573
Outline: as §1

NC(=O)Nc1cc(-c2cccc(F)c2)sc1C(=O)N[C@H]1CCCNC1 [AZD7762] + Cc1nc(Nc2ncc(C(=O)Nc3c(C)cccc3Cl)s2)cc(N2CCN(CCO)CC2)n1 [Dasatinib] (partner 0.075 µM)
relative viability (ABC-1; first compound 0.01 µM): 0.618 | relative viability (ABC-1; first compound 0.03162 µM): 0.586 | relative viability (ABC-1; first compound 0.1 µM): 0.473 | relative viability (ABC-1; first compound 0.3162 µM): 0.413 | relative viability (ABC-1; first compound 1 µM): 0.273 | relative viability (CAL-12T; first compound 0.01 µM): 0.637 | relative viability (CAL-12T; first compound 0.03162 µM): 0.463 | relative viability (CAL-12T; first compound 0.1 µM): 0.47 | relative viability (CAL-12T; first compound 0.3162 µM): 0.23 | relative viability (CAL-12T; first compound 1 µM): 0.0827 | relative viability (COR-L23; first compound 0.01 µM): 0.477 | relative viability (COR-L23; first compound 0.03162 µM): 0.528 | relative viability (COR-L23; first compound 0.1 µM): 0.515 | relative viability (COR-L23; first compound 0.3162 µM): 0.313 | relative viability (COR-L23; first compound 1 µM): 0.0945 | relative viability (EKVX; first compound 0.01 µM): 0.623 | relative viability (EKVX; first compound 0.03162 µM): 0.615 | relative viability (EKVX; first compound 0.1 µM): 0.337 | relative viability (EKVX; first compound 0.3162 µM): 0.543 | relative viability (EKVX; first compound 1 µM): 0.521 | relative viability (H3255; first compound 0.01 µM): 0.347 | relative viability (H3255; first compound 0.03162 µM): 0.307 | relative viability (H3255; first compound 0.1 µM): 0.44 | relative viability (H3255; first compound 0.3162 µM): 0.352 | relative viability (H3255; first compound 1 µM): 0.319 | relative viability (HCC-15; first compound 0.01 µM): 0.582 | relative viability (HCC-15; first compound 0.03162 µM): 0.592 | relative viability (HCC-15; first compound 0.1 µM): 0.592 | relative viability (HCC-15; first compound 0.3162 µM): 0.561 | relative viability (HCC-15; first compound 1 µM): 0.52 | relative viability (HCC-827; first compound 0.01 µM): 0.418 | relative viability (HCC-827; first compound 0.03162 µM): 0.335 | relative viability (HCC-827; first compound 0.1 µM): 0.302 | relative viability (HCC-827; first compound 0.3162 µM): 0.31 | relative viability (HCC-827; first compound 1 µM): 0.186 | relative viability (LK-2; first compound 0.01 µM): 0.269 | relative viability (LK-2; first compound 0.03162 µM): 0.266 | relative viability (LK-2; first compound 0.1 µM): 0.283 | relative viability (LK-2; first compound 0.3162 µM): 0.27 | relative viability (LK-2; first compound 1 µM): 0.298 | relative viability (NCI-H1355; first compound 0.01 µM): 0.668 | relative viability (NCI-H1355; first compound 0.03162 µM): 0.849 | relative viability (NCI-H1355; first compound 0.1 µM): 0.739 | relative viability (NCI-H1355; first compound 0.3162 µM): 0.681 | relative viability (NCI-H1355; first compound 1 µM): 0.506 | relative viability (NCI-H1437; first compound 0.01 µM): 0.346 | relative viability (NCI-H1437; first compound 0.03162 µM): 0.586 | relative viability (NCI-H1437; first compound 0.1 µM): 0.427 | relative viability (NCI-H1437; first compound 0.3162 µM): 0.286 | relative viability (NCI-H1437; first compound 1 µM): 0.307 | relative viability (NCI-H1563; first compound 0.01 µM): 0.451 | relative viability (NCI-H1563; first compound 0.03162 µM): 0.492 | relative viability (NCI-H1563; first compound 0.1 µM): 0.5 | relative viability (NCI-H1563; first compound 0.3162 µM): 0.524 | relative viability (NCI-H1563; first compound 1 µM): 0.419 | relative viability (NCI-H1650; first compound 0.01 µM): 0.313 | relative viability (NCI-H1650; first compound 0.03162 µM): 0.311 | relative viability (NCI-H1650; first compound 0.1 µM): 0.314 | relative viability (NCI-H1650; first compound 0.3162 µM): 0.264 | relative viability (NCI-H1650; first compound 1 µM): 0.19 | relative viability (NCI-H1734; first compound 0.01 µM): 0.537 | relative viability (NCI-H1734; first compound 0.03162 µM): 0.542 | relative viability (NCI-H1734; first compound 0.1 µM): 0.493 | relative viability (NCI-H1734; first compound 0.3162 µM): 0.394 | relative viability (NCI-H1734; first compound 1 µM): 0.35 | relative viability (NCI-H2228; first compound 0.01 µM): 0.67 | relative viability (NCI-H2228; first compound 0.03162 µM): 0.606 | relative viability (NCI-H2228; first compound 0.1 µM): 0.373 | relative viability (NCI-H2228; first compound 0.3162 µM): 0.204 | relative viability (NCI-H2228; first compound 1 µM): 0.125 | relative viability (NCI-H2342; first compound 0.01 µM): 0.326 | relative viability (NCI-H2342; first compound 0.03162 µM): 0.344 | relative viability (NCI-H2342; first compound 0.1 µM): 0.33 | relative viability (NCI-H2342; first compound 0.3162 µM): 0.309 | relative viability (NCI-H2342; first compound 1 µM): 0.31 | relative viability (NCI-H2405; first compound 0.01 µM): 0.234 | relative viability (NCI-H2405; first compound 0.03162 µM): 0.216 | relative viability (NCI-H2405; first compound 0.1 µM): 0.228 | relative viability (NCI-H2405; first compound 0.3162 µM): 0.157 | relative viability (NCI-H2405; first compound 1 µM): 0.177 | relative viability (NCI-H322M; first compound 0.01 µM): 0.258 | relative viability (NCI-H322M; first compound 0.03162 µM): 0.237 | relative viability (NCI-H322M; first compound 0.1 µM): 0.286 | relative viability (NCI-H322M; first compound 0.3162 µM): 0.279 | relative viability (NCI-H322M; first compound 1 µM): 0.256 | relative viability (NCI-H520; first compound 0.01 µM): 0.212 | relative viability (NCI-H520; first compound 0.03162 µM): 0.18 | relative viability (NCI-H520; first compound 0.1 µM): 0.192 | relative viability (NCI-H520; first compound 0.3162 µM): 0.16 | relative viability (NCI-H520; first compound 1 µM): 0.189 | relative viability (NCI-H661; first compound 0.01 µM): 0.753 | relative viability (NCI-H661; first compound 0.03162 µM): 0.808 | relative viability (NCI-H661; first compound 0.1 µM): 0.575 | relative viability (NCI-H661; first compound 0.3162 µM): 0.468 | relative viability (NCI-H661; first compound 1 µM): 0.296 | relative viability (PC-14; first compound 0.01 µM): 0.281 | relative viability (PC-14; first compound 0.03162 µM): 0.254 | relative viability (PC-14; first compound 0.1 µM): 0.211 | relative viability (PC-14; first compound 0.3162 µM): 0.0804 | relative viability (PC-14; first compound 1 µM): 0.0213 | relative viability (PC-3 [JPC-3]; first compound 0.01 µM): 1.05 | relative viability (PC-3 [JPC-3]; first compound 0.03162 µM): 0.961 | relative viability (PC-3 [JPC-3]; first compound 0.1 µM): 0.969 | relative viability (PC-3 [JPC-3]; first compound 0.3162 µM): 1.01 | relative viability (PC-3 [JPC-3]; first compound 1 µM): 0.716 | relative viability (RERF-LC-KJ; first compound 0.01 µM): 0.847 | relative viability (RERF-LC-KJ; first compound 0.03162 µM): 0.896 | relative viability (RERF-LC-KJ; first compound 0.1 µM): 0.858 | relative viability (RERF-LC-KJ; first compound 0.3162 µM): 0.782 | relative viability (RERF-LC-KJ; first compound 1 µM): 0.563 | relative viability (SW 1573; first compound 0.01 µM): 0.576 | relative viability (SW 1573; first compound 0.03162 µM): 0.561 | relative viability (SW 1573; first compound 0.1 µM): 0.45 | relative viability (SW 1573; first compound 0.3162 µM): 0.247 | relative viability (SW 1573; first compound 1 µM): 0.121
